Experimental data reported in patent US20040038920A1, “Chlamydial peptides and their mimics in demyelinating disease” (priority 2003, published 2004).

Experiments:
Lewis rats = experiment: Induction of EAE in Lewis rats by immunization with peptide in CFA; type: in vivo, rat; conditions: for EAE Incidence (# affected animals/total # animals injected) / EAE severity score (in parentheses): Table IV, dose not given; for EAE Severity (mean group severity, max. = 3.0) / EAE Incidence: Lewis rats; for EAE severity score (in parentheses): max. = 3.0; for Encephalitogenic activity in LEW rats (in words): peptide in CFA, s.c.
Protocol: Peptides were administered subcutaneously to LEW rats at 5 μg or 50 μg doses in the standard manner. Eight- to twelve-week-old female Lewis rats (purchased from Charles River, Raleigh, N.C.) were immunized subcutaneously at the hind footpad with the appropriate synthetic peptide, emulsified in complete Freund's adjuvant (CFA, Difco, Detroit, Mich.). […] Animals were followed for 21 days post-immunization. Hematoxylin-eosin-stained and toluidine blue-stained spinal cord sections from representative rats were examined for inflammatory cell infiltration and demyelination without knowledge of the group of origin.

[1] = tested on: T cells from rats immunized with the chlamydial peptide; experiment: T cell proliferation assay (3H-thymidine), Cpn0483-primed T cells; type: cell-based, rat; conditions: for Proliferation of peptide-primed T cells in response to irrelevant peptide: specificity control, priming peptide not specified; for Proliferative response of Cpn0483-primed T cells to peptide: 96 hr culture with irradiated thymocytes as APCs, FIG. 3
Protocol: (§1) To further investigate the immunopathology underlying the clinical observations, T cells were isolated from the spleens of rats immunized with Cpn0483 or MBP68-86, and recall responses were assessed using standard T cell proliferation assays.
(§2) Briefly, splenocytes were isolated from peptide-primed rats, adherent cells were removed by culture on plastic Petri dishes, and T cells were isolated on T cell columns (Biotec, Edmonton, Canada). The T cells were cultured for 96 hr with irradiated (2000rad) syngeneic thymocytes as antigen presenting cells (APCs), and peptide, in 96-well flat-bottom microtiter plates. The cultures were pulsed with ^3H-thymidine (0.5 μCi/well) 18 hr prior to harvesting cells, and 3H-thymidine incorporation was measured in a liquid scintillation counter (Wallac 1450 Microbeta Plus, Gaithersburg, Md.). Cultures were run in quadruplicate and each experiment was repeated at least twice. Dose-response studies were performed using various peptides at differing concentrations, and representative results are presented.

[2] = tested on: syngeneic recipients (LEW rats); experiment: Transfer of EAE with peptide-activated spleen cells from Cpn0483-immunized rats; type: in vivo, rat; conditions: Cpn0483-primed spleen cells activated in vitro with the named peptide for 72 hr
Protocol: Both are characteristic pathological findings in the rat model of EAE (Zamvil et al., supra; Swanborg, 1995, supra) and are also observed in MS (Raine et al., 1999, supra). […] This feature is prominent in MS, but is not characteristic of acute EAE in LEW rats. When spleen cells were prepared from Cpn0483-immunized LEW rats with EAE and activated in vitro with the same peptide for 72 hr, they transferred clinical disease to 6 of 9 syngeneic recipients. Six of 9 recipients of Cpn-primed spleen cells activated with MBP68-86 also developed clinical EAE. Mononuclear infiltration was present in the spinal cords of recipients with clinical disease, as expected.

[3] = tested on: T cells derived from rats immunized with rat MBP68-86; experiment: T cell proliferation assay (3H-thymidine), rat MBP68-86-primed T cells; type: cell-based; conditions: 96 hr culture with irradiated thymocytes as APCs, FIG. 4
Protocol: as §1, §2

[4] = tested on: short-term T cell line from Cpn0483 peptide-immunized rats; experiment: Cytokine secretion by short-term T cell line (ELISA); type: cell-based, rat; conditions: activated for 72 hr with the chlamydial peptide
Description: It has been well established that EAE in rodents is mediated by IFN-γ-producing Th1 inflammatory cells ((Zamvil et al., supra; Swanborg, supra; R. B. Smeltz et al., J. Immunol. 162, 829 (1999)).

[5] = 5 μg peptide s.c. in CFA, affected/total
[6] = 50 μg peptide s.c. in CFA, Table 2
[7] = 50 μg peptide s.c. in CFA, affected/total, Table 2
[8] = groups given either dose (5 μg or 50 μg)

Substance | EAE Incidence (# affected animals/total # animals injected) (Lewis rats) | EAE Incidence (Lewis rats; Incidence at 50 μg, Table 3) | EAE severity score (in parentheses) (Lewis rats) | Encephalitogenic activity in LEW rats (in words) (Lewis rats) | EAE Severity (mean group severity, max. = 3.0) (Lewis rats; [6]) | EAE Incidence (Lewis rats; [7]) | other results
HYGCLLPRNPRTED (listed as Chlamydia pneumoniae) [N4/C2 truncated] | 0/5 | – | – | – | – | – | –
MBP11-30: irrelevant nonencephalitogenic peptide (SAEKASKDGEIHRGEAGKKR; UniProt P04370 11-30, looked up, fragment) | – | – | – | – | – | – | Proliferation of peptide-primed T cells in response to irrelevant peptide [1]: lack of proliferation
MBP31-50: irrelevant nonencephalitogenic peptide (SVGKLSQTASEDSDVFGEAD; UniProt P04370 31-50, looked up, fragment) | – | – | – | – | – | – | Proliferation of peptide-primed T cells in response to irrelevant peptide [1]: lack of proliferation
NHYGCLLPRNPRTED (listed as Chlamydia pneumoniae) [N3/C2 truncated] | 0/5 | – | – | – | – | – | –
PNHYGCLLPRNPRTEDQN (listed as Chlamydia pneumoniae) [N2—truncated] | 0/5 | – | – | – | – | – | –
RFPNHYGCLLPRNPR (listed as Chlamydia pneumoniae) [C5—truncated] | 0/5 | – | – | – | – | – | –
RFPNHYGCLLPRNPRTEAQN (listed as Chlamydia pneumoniae) [Cpn D>A] | 9/10 | 9/10 | 2.7 | elicited severe EAE | – | – | EAE Severity (mean group severity, max. = 3.0) (Lewis rats; 50 μg, Table 3): 2.7
RFPNHYGCLLPRNPRTEDQN (listed as Chlamydia pneumoniae) [Cpn0483, 20-mer peptide near the C-terminus of C. pneumoniae protein Cpn0483] | 5/5 | 5/5 | 3.0 | encephalitogenic | 2.3 | 14/15 | EAE Severity (mean group severity, max. = 3.0) (Lewis rats; 5 μg peptide s.c. in CFA): 1.8; EAE Incidence (Lewis rats; [5]): 3/5; EAE Severity (mean group severity, max. = 3.0) (Lewis rats; 50 μg, Table 3): 3.0; Demyelination in spinal cord sections (Lewis rats; Luxol fast blue-stained sections): Significant demyelination was not observed; Initial clinical signs of EAE, time post-immunization (Lewis rats; [8]): approximately 12 days; Persistence of clinical signs of EAE (Lewis rats; [8]): 3 to 6 days; Encephalitogenic activity in LEW rats (in words) (Lewis rats; listed as chlamydial peptide): as effective as guinea pig or rat MBP68-86 peptide in causing paralysis; Spinal cord inflammatory cell infiltration (histology) (Lewis rats; spinal cords of immunized rats): Extensive perivascular cuffing and parenchymal mononuclear cell infiltration; Recipients developing clinical EAE after cell transfer [2]: 6 of 9; Proliferative response of Cpn0483-primed T cells to peptide [1]: respond to priming peptide; Proliferative response of Cpn0483-primed T cells to peptide ([1]; listed as chlamydial peptide): responded vigorously; Proliferative response of rat MBP68-86-primed T cells to peptide [3]: cross-reacted only minimally; Proliferative response of rat MBP68-86-primed T cells to peptide ([3]; listed as chlamydial peptide): cross-react; IFN-γ secreted [4]: 7,000 pg/ml; IL-4 production [4]: did not produce detectable IL-4
RFPNHYGSLLPRNPRTEDQN (listed as Chlamydia pneumoniae) [Cpn0483 C > S] | 8/10 | – | 2.4 | lack of effect | 2.2 | 4/5 | EAE Severity (mean group severity, max. = 3.0) (Lewis rats; 5 μg peptide s.c. in CFA): 2.4; EAE Incidence (Lewis rats; [5]): 4/5
YGCLLPRNPRTEDQN (listed as Chlamydia pneumoniae) [N5—truncated] | 0/5 | – | – | – | – | – | –
YGSLPQKSORTQAENPV (YGSLPQKSQRSQAENPV; listed as Rattus sp.) [MBP D>A, reference compound] | – | 0/10 | – | abolished encephalitogenic activity | – | – | –
YGSLPQKSQRSQDENPV (Guinea pig) [gp68-86, guinea pig myelin basic protein peptide 68-86, reference compound] | – | – | – | induced clinical disease with comparable severity and time course | 3.0 | 5/5 | –
YGSLPQKSQRTQDENPV (listed as Rattus sp.) [rat68-86, rat myelin basic protein peptide 68-86, reference compound] | 5/5 | 5/5 | 3.0 | induced clinical disease with comparable severity and time course | 2.7 | 10/10 | EAE Severity (mean group severity, max. = 3.0) (Lewis rats; 50 μg, Table 3): 3.0; Recipients developing clinical EAE after cell transfer [2]: Six of 9; Proliferative response of Cpn0483-primed T cells to peptide ([1]; listed as rat MBP68-86): responded significantly; Proliferative response of Cpn0483-primed T cells to peptide ([1]; listed as ratMBP68-86): cross-react; Proliferative response of rat MBP68-86-primed T cells to peptide ([3]; listed as rat MBP68-86): proliferated vigorously; Proliferative response of rat MBP68-86-primed T cells to peptide ([3]; listed as ratMBP68-86): respond to priming peptide
